Holding throughout (type): cell-based, murine
One data set has as its system Neuro-2a cells. Description: Neuro-2a cells treated with compound alone in the culture media. The note with it: compound alone in the culture media (data not shown). The text has this: Specifically, a significant reduction in cell death, to less than 15% and 25%, respectively, was observed.
Another data set has as its system NF-kB p65. Description: Nuclear translocation of NF-kB p65 in LPS-stimulated BV-2 cells, Western blot. The note with it: 50 μg/ml pretreatment 1 h, 100 ng/ml LPS 30 min. Here is the method: BV-2 cells (2×10^5 cells/ml) were pretreated with either 0.05% DMSO or 50 μg/ml senkyunolide A for 1 h, followed by treatment with 100 ng/ml LPS for another 30 min. (A) Cytoplasmic proteins were extracted and analyzed by Western Blot using antibodies specific for phospho-p38, phospho-JNK, phospho-ERK 1/2 and actin. (B) Nuclear proteins were extracted and analyzed by Western Blot against NF-kB p65 and lamin B antibodies. 10^5 cells/ml BV-2 cells were first pretreated with senkyunolide A for 1 h. After induction by 100 ng/ml LPS for 30 min, the culture medium was discarded. Cytoplasmic proteins and nuclear proteins were extracted separately by buffer A and buffer C as described in our previous report^28. The cell lysates were separated by 10% SDS-polyacrylamide gel electrophoresis and transferred to a nitrocellulose membrane (Schleicher & Schuell, Germany). The cell lysates were incubated with specific antibodies (phospho-MAP kinases, Actin, NF-kB p65 and Lamin B) overnight. After three washes, the membranes were incubated with the corresponding secondary antibodies. The bands were detected using the Enhanced Chemiluminescence System (GE Healthcare, Piscataway, N.J., USA) according to the manufacturer's instructions. The NF-kB pathway plays a key role in the transcriptional regulation of inflammatory mediators. […]
Background: Immunoblotting shows a protein as a band on a membrane.

Data set [1] has as its system TNF-α mRNA and iNOS expression in BV-2 cells. Description: TNF-α mRNA and iNOS expression in LPS-treated BV-2 cells, RT-PCR. Conditions: compound 1 hour before LPS for 6 hours. Here is the method:
Semi-quantitative PCR assays of targeted genes were performed in a 25 μl reaction mixture containing 1.5 mM MgCl2, 0.2 mM of each deoxynucleoside triphosphate, 0.25 μM of each primer, 2 units of Taq polymerase (GE Healthcare), and 1 μl of cDNA. PCR primer sets for TNF-α and glyceraldehyde-3-phosphate dehydrogenase (GAPDH) were as follows. TNF-α (upstream: 5′-GGCTCCAGGCGGTGCT TGTCC-3′ (SEQ ID NO:1); downstream: 5′-[…]-3′ (SEQ ID NO:2)), and GAPDH (upstream: 5′-[…]-3′ (SEQ ID NO:3); downstream: 5′-[…]-3′ (SEQ ID NO:4). The thermal cycling condition for PCR was 94° C. for 30 s, 60° C. for 30 s, and 72° C. for 1 min. The cycling reactions were repeated for 24 more cycles.
The levels of TNF-α mRNA and iNOS mRNA were determined by real-time RT-PCR (Roche 480II). 18S ribosomal RNA (18S) was used as an internal control. All of the real-time RT-PCR probes were obtained from the Universal Probe Library (Roche). All of the samples were performed in duplicate. […] The relative mRNA expression of the targeted genes was calculated by 2^−ΔΔCT and expressed as fold induction.
To study the role of senkyunolide A in suppressing TNF-α production, 10^5 cells/ml BV-2 cells are seeded in 24-well plates (0.5 ml in each well). […] Total RNA of the treated samples is isolated and subjected to semi-quantitative RT-PCR assays (FIG. 9A) and quantitative RT-PCR assays (FIGS. 9B and C) using specific […] TNF-α primers.

For data set [2], the system named is nitrite production in BV-2 cells. Description: LPS-induced nitrite (nitric oxide) production in BV-2 cells, Griess reagent. Conditions: 100 ng/ml LPS, 18 hours. Here is the method:
Nitrite levels in the culture media were determined using Griess reagent under manufacturer's instructions (Sigma Aldrich, St. Louis, Mo.). Fresh culture media were used as blanks and the nitrite levels were determined by using a standard sodium nitrite curve.
The effect of each extract on nitric oxide production is evaluated according to the procedures illustrated as follows. Briefly, murine microglia cell line BV-2 is maintained in Dulbecco's modified Eagle's minimum essential medium (DMEM) supplemented with 10% FBS and 1% penicillin and streptomycin (Invitrogen Life Technologies, Carlsbad, Calif.) at 37° C. in a humidified atmosphere with 5% CO2 in warm air.
0.1 M cells/ml BV-2 cells are seeded in 24-well plates (0.5 ml in each well). Cells are treated with 0.05% DMSO; 0.05% DMSO and 100 ng/ml LPS; or 100 ng/ml LPS and 50 μg/ml of an LCX extract for 18 hours, respectively. The culture supernatant is collected. The nitric oxide level is measured using the Griess reagent according to standard manufacturer's instructions (Sigma Aldrich, St. Louis, Mo.), and assessed using the standard sodium nitrite curve.
The effect of senkyunolide A (Sen A) and Z-ligustilide (Z-Lig) at various concentrations on LPS-induced nitrite production is further evaluated in this Example. Briefly, 0.1 M cells/ml BV-2 cells are seeded in 24-well plates (0.5 ml in each well). Cells are treated with 0.05% DMSO; 0.05% DMSO and 100 ng/ml LPS; 50 μg/ml Sen A/Z-Lig; or 100 ng/ml LPS and Sen A/Z-Lig at a concentration of 1 μg/ml, 5 μg/ml, 10 μg/ml, 25 μg/ml, and 50 μg/ml for 18 hours, respectively. The culture supernatant is collected. The nitric oxide level is measured using the Griess reagent according to standard manufacturer's instructions (Sigma Aldrich, St. Louis, Mo.), and evaluated using the standard sodium nitrite curve.
Background: Griess reagent forms a coloured azo dye with nitrite.

The test system of the next data set is TNF-α mRNA. As to the kind of experiment: TNF-α mRNA stability assay (actinomycin D) in BV-2 cells. Conditions: compound 1 hour, LPS 2 hours, then 1 μg/ml actinomycin. Here is the method:
10^5 BV-2 cells were first stimulated by 100 ng/ml LPS. After 2 h of LPS treatment, transcription inhibitor actinomycin D (Act D) at a concentration of 1 ug/ml was added to stop the mRNA synthesis. Total RNA was harvested at indicated time points after actinomycin D treatment (post-Act D). The level of TNF-α mRNA was measured by real-time quantitative RT-PCR. In addition, the effect of senkyunolide A on TNF-α mRNA stability is evaluated. Specifically, 10^5 cells/ml BV-2 cells are seeded in 24-well plates (0.5 ml in each well). Cells are treated with Sen A at various concentrations for 1 hour prior to the addition of LPS for another 2 hours, and further incubated with 1 μg/ml actinomycin for various time periods. Total RNA of the treated samples is isolated and subjected to real-time RT-PCR.

Molecules are shown by their SMILES.

As for `CCCC[C@H]1OC(=O)C2=C1CCC=C2` [senkyunolide A], the “cell death with compound alone” value with Neuro-2a cells is given as “did not show cell death”. In addition, the “effect on translocation of NF-kB p65 into the nucleus” value in the data set on NF-kB p65 is given as “did not exert an inhibitory effect”. Moreover, in data set [1], the “effect on TNF-α mRNA expression” value is “inhibits TNF-α mRNA”; the “effect on iNOS expression” value is “inhibits TNF-α mRNA and iNOS expression”. Also, the “reduction in nitrite production” value in data set [2] (10 μg/ml) is listed as “approximately 4 fold”. Also, in data set [2] (25 μg/ml), the “reduction in nitrite production” value was roughly 20 fold. Moreover, in data set [2] (50 μg/ml), the “effect on nitrite production” value is listed as “almost completely inhibits nitrite production”. For the same molecule, in the data set with TNF-α mRNA, the “effect on TNF-α mRNA stability” value is “destabilizes TNF-α mRNA” and the “reduction of TNF-α mRNA half life” value is given as 43%.

For the origin of these results see patent US9655877B2, “Therapeutic methods for treating inflammation and immune system disorders” (priority 2009, dated 2017).
